Key:
Assay type in all cases: cell-based
MV-4-11 [1] = test: Cell viability (CCK-8) assay; details: 96 h, CCK-8
Experimental: (§1) The plated at a density of 15,000 cells per well, and each well contained 100 µL of medium. Subsequently, different compounds (MGD-AX, MGD-BX, MGD-CX) were added to each well. […] To evaluate the antiproliferative effects of these compounds, the Cell Counting Kit-8 (CCK-8, #CX007, Epizyme, Shanghai, China) was used. All procedures were carried out in strict accordance with the manufacturer’s instructions (Dojindo Laboratories, Mamoto Ken, Japan).

NCI-H929 = test: Cell viability (CCK-8) assay
Experimental: as §1

Ocl-Ly3 = test: Cell viability (CCK-8) assay; details: 96 h, CCK-8
Experimental: as §1

IKZF1-HiBiT = target: T1, IKZF1-HiBiT (Homo sapiens, UniProt Q13422+Q96SW2); test: Quantitative degradation assay using the HiBiT system (HEK293T); details: HEK-293T; HEK293T IKZF1-HiBiT, 24 h; read-out: maximal degradation (Dmax) on IKZF1
T1 construct: expressed in transfected cells; host or cells: HEK293T
Experimental: (§2) An in vitro quantitative degradation assay utilizing the HiBiT system was carried out as previously described. To evaluate the degradation of IKZF1, IKZF2, and IKZF3 proteins, HEK293T cell lines stably expressing IKZF1-, IKZF2-, IKZF3-, GSPT1- or CK1α-HiBiT were cultured in 96-well plates at 12,000 cells per well. […] After the treatment, cell lysis was carried out using the Nano-Glo HiBiT Lytic Detection System (#N3040, Promega). All lysis operations were strictly carried out according to the manufacturer’s specific protocol. Then, the SpectraMax iD3 instrument (Molecular Devices, San Jose, CA, USA) was used to detect the luminescent signals released by the HiBiT-tagged neosubstrates.

IKZF3-HiBiT = target: T2, IKZF3-HiBiT (Homo sapiens, UniProt Q96SW2+Q9UKT9); test: as above; details: HEK-293T; HEK293T IKZF3-HiBiT, 24 h; read-out: maximal degradation (Dmax) on IKZF3
T2 construct: expressed in transfected cells; host or cells: HEK293T
Experimental: as §2

[2] = system: NCI-H929 (MM), MV-4-11(AML), and Ocl-Ly3 (DLBCL) cells; test: Cell viability (CCK-8) assay, statements on the whole three-line panel; details: for antiproliferative activity (in words): compared with the prototypical IMiDs
Experimental: Multiple cell lines (NCI-H929, OPM-2, U937, Ocl-Ly3, RPMI-8226, MOLM-13, Skm-1, MUTZ-1, SU-DHL-4, TMD8, U2932, WSU-DLCL-2, MV-4-11 and KG-1 cells) were plated into 96-well plates. The plated at a density of 15,000 cells per well, and each well contained 100 µL of medium. Subsequently, different compounds (MGD-AX, MGD-BX, MGD-CX) were added to each well. These compounds’ concentrations were set at 0, 0.01, 0.033, 0.1, 0.33, 1, 3.3, 10 and 33 μM, and the cells were incubated with the compounds for 96 h. To evaluate the antiproliferative effects of these compounds, the Cell Counting Kit-8 (CCK-8, #CX007, Epizyme, Shanghai, China) was used. All procedures were carried out in strict accordance with the manufacturer’s instructions (Dojindo Laboratories, Mamoto Ken, Japan). The half maximal inhibitory concentrations (IC50) values, which represent the concentrations of the test compounds that can inhibit 50% of cell activity, were calculated using GraphPad Prism 8.0 (GraphPad Software Inc., San Diego, CA, USA).

KG-1 = test: Cell viability (CCK-8) assay; details: Homo sapiens, KG-1, 96 h, read-out: IC50 (μM) KG-1
Experimental: as §1

MOLM-13 = test: Cell viability (CCK-8) assay; details: Homo sapiens, MOLM-13, 96 h, read-out: IC50 (μM) MOLM-13
Experimental: as §1

MUTZ-1 = test: Cell viability (CCK-8) assay; details: 96 h, read-out: IC50 (μM) MUTZ-1
Experimental: as §1

OPM-2 = test: Cell viability (CCK-8) assay; details: Homo sapiens, OPM-2, 96 h, read-out: IC50 (μM) OPM-2
Experimental: as §1

RPMI-8226 = test: Cell viability (CCK-8) assay; details: Homo sapiens, RPMI-8226, 96 h, read-out: IC50 (μM) RPMI-8226
Experimental: as §1

SU-DHL-4 = test: Cell viability (CCK-8) assay; details: Homo sapiens, SU-DHL-4, 96 h, read-out: IC50 (μM) SU-DHL-4
Experimental: as §1

Skm-1 = test: Cell viability (CCK-8) assay; details: Homo sapiens, SKM-1, 96 h, read-out: IC50 (μM) Skm-1
Experimental: as §1

TMD8 = test: Cell viability (CCK-8) assay; details: Homo sapiens, TMD8, 96 h, read-out: IC50 (μM) TMD8
Experimental: as §1

U2932 = test: Cell viability (CCK-8) assay; details: Homo sapiens, U2932, 96 h, read-out: IC50 (μM) U2932
Experimental: as §1

U937 = test: Cell viability (CCK-8) assay; details: Homo sapiens, U-937, 96 h, read-out: IC50 (μM) U937
Experimental: as §1

WSU-DLCL-2 = test: Cell viability (CCK-8) assay; details: Homo sapiens, WSUDLCL2, 96 h, read-out: IC50 (μM) WSU-DLCL-2
Experimental: as §1

MV-4-11 [3] = test: Cell apoptosis assay (Annexin V flow cytometry); details: MV-4-11, 10 µM
Experimental: (§3) Cells (NCI-H929 and MV-4-11) were seeded at a density of 1 × 10^6 cells per well into 6-well dishes. […] Apoptosis was assessed using an Annexin V-FITC kit (#ab14085; Abcam, MA, USA) on a FACS Calibur Flow Cytometer (Becton Dickinson, Franklin Lakes, NJ, USA). For cell cycle analysis, cells were fixed in 75% ethanol (−20°C/overnight), washed with PBS (pH = 7.2–7.4, 1×), treated with RNase A (0.2 mg/mL, 37°C/30 min), stained with PI (10 μg/mL), and analyzed on the same instrument. Finally, the samples were analyzed using a FACS Calibur Flow Cytometer.

[4] = system: control vector NCI-H929 cells; test: Cell apoptosis assay, control vector cells
Experimental: […] NCI-H929 and MV-4-11 cells were seeded at a density of 1 × 10^6 cells/well in 6-well tissue culture-treated plates. According to the manufacturer’s protocol (Santa Cruz Biotechnology, Inc, Dallas, TX, USA), CRBN CRISPR/Cas9 knockout Plasmid (#sc-412142), CRBN HDR plasmid (#sc-412142-HDR), UltraCruz® Transfection Reagent (#sc-395739) were pre-mixed in Plasmid Transfection Medium (#sc-108062) at a 1:1:2 mass ratio, and cells were transiently transfected in a 37°C, 5% CO2 incubator. After 72 h of infection, the medium was replaced with complete medium containing 3 μg/mL puromycin for 5–7 days. On day 7, GFP-positive cells were sorted as single cells into 96-well plates. Isolated single-cell clones were screened via western blot analysis, using wild-type NCI-H929 or MV-4-11 cells as positive controls.
as §3

T1 sequence (Q13422 whole entry): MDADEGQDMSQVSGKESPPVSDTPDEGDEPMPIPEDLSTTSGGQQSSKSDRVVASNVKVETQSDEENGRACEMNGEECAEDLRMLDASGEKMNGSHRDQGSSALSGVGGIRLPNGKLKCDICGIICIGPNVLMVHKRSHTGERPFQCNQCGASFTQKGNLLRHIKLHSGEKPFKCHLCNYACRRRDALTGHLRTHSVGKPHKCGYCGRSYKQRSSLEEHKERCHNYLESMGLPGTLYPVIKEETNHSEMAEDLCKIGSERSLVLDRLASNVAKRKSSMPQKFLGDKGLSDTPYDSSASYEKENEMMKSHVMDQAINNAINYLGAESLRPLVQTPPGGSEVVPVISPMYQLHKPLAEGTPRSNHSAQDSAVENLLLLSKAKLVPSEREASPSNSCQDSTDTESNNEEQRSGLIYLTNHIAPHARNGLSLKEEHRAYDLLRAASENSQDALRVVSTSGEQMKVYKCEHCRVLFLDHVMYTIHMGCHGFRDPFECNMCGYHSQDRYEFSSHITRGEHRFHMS
T1 sequence (Q96SW2 whole entry): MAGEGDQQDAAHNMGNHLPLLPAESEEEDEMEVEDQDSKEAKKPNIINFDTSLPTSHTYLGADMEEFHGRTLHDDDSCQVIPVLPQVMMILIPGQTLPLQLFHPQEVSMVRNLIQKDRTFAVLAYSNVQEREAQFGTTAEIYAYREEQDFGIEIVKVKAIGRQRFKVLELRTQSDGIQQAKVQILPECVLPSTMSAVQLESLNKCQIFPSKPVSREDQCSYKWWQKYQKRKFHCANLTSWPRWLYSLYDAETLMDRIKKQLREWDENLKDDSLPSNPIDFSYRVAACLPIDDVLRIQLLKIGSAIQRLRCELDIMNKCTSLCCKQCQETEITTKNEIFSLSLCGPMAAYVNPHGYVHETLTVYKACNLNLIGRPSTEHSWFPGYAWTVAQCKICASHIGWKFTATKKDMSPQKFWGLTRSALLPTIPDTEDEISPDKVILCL
T1 sequence (Q16531 whole entry partner): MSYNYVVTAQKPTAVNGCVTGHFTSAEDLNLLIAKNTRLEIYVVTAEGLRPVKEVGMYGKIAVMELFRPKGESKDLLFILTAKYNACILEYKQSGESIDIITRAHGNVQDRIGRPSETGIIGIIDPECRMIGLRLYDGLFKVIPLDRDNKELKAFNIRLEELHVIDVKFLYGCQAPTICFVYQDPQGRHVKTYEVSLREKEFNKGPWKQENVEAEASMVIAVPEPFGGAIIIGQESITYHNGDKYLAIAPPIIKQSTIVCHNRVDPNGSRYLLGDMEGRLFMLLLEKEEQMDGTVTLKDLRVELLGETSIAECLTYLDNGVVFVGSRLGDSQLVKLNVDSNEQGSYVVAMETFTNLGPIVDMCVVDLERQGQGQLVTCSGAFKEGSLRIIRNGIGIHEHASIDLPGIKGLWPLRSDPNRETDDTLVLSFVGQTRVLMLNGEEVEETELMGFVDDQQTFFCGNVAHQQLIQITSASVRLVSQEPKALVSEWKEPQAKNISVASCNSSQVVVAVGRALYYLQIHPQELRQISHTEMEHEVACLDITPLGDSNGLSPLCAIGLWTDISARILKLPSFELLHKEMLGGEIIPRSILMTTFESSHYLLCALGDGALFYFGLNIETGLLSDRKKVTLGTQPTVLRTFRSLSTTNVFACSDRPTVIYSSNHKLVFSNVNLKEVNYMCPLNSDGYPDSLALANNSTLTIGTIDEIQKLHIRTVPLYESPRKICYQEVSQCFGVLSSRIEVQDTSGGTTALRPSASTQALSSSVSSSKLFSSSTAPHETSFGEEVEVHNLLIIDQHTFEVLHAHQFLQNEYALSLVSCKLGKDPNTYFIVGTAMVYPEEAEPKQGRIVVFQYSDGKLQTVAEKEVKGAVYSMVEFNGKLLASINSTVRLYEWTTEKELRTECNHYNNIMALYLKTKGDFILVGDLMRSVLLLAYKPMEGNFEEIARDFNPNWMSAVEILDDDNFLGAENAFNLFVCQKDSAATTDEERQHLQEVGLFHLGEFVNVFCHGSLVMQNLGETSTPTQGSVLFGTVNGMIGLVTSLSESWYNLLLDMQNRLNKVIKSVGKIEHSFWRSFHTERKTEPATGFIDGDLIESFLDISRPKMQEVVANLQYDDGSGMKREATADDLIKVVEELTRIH
T2 sequence (Q9UKT9 whole entry): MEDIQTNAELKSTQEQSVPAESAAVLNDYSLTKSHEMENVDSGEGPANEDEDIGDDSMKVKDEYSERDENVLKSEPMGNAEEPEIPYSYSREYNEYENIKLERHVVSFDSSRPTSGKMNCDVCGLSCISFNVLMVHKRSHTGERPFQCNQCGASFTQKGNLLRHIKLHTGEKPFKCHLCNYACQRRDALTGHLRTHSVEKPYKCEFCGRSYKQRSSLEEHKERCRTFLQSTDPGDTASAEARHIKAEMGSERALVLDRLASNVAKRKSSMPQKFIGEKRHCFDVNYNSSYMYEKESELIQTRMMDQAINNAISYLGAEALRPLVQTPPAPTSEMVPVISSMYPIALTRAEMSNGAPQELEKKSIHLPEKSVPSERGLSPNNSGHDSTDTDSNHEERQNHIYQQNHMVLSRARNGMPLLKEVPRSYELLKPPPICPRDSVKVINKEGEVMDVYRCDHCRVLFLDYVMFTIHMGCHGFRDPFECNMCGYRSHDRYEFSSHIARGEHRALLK
T2 sequence (Q96SW2 whole entry): as the sequence (Q96SW2 whole entry) above
T2 sequence (Q16531 whole entry partner): as the sequence (Q16531 whole entry partner) above

## Cc1nc2cccc(N)c2c(=O)n1C1CCC(=O)NC1=O (stereo not drawn) [Avadomide, reference compound]
MV-4-11 [1]; Homo sapiens, MV4-11, 96 h
  IC50: 0.85 µM
NCI-H929; Homo sapiens, NCI-H929, 96 h
  IC50: 0.2 µM
Ocl-Ly3
  IC50: 15.5 µM
IKZF1-HiBiT
  Dmax: 80.4%
IKZF3-HiBiT
  Dmax: 83.1%

## O=C1CCC(NC(=O)c2cccc(C(=O)N3CCCC3)c2)C(=O)N1 (stereo not drawn) [MGD-A10, N-(2,6-dioxopiperidin-3-yl)-3-(pyrrolidine-1-carbonyl)benzamide]
MV-4-11 [1]; Homo sapiens, MV4-11, 96 h
  IC50: 8.34 ± 0.79 µM
NCI-H929; Homo sapiens, NCI-H929, 96 h
  IC50: 14.2 ± 1.36 µM
Ocl-Ly3
  IC50: > 33 µM
[2]
  antiproliferative activity (in words): mild activity

## O=C1CCC(NC(=O)c2cccc(C(=O)N3CCCCC3)c2)C(=O)N1 (stereo not drawn) [MGD-A11, N-(2,6-dioxopiperidin-3-yl)-3-(piperidine-1-carbonyl)benzamide]
MV-4-11 [1]; Homo sapiens, MV4-11, 96 h
  IC50: 5.47 ± 0.52 µM
NCI-H929; Homo sapiens, NCI-H929, 96 h
  IC50: 8.33 ± 0.8 µM
Ocl-Ly3
  IC50: 23 ± 2.19 µM
[2]
  antiproliferative activity (in words): mild activity

## CC1CCN(C(=O)c2cccc(C(=O)NC3CCC(=O)NC3=O)c2)CC1 (stereo not drawn) [MGD-A12, N-(2,6-dioxopiperidin-3-yl)-3-(4-methylpiperidine-1-carbonyl)benzamide]
MV-4-11 [1]; Homo sapiens, MV4-11, 96 h
  IC50: 14.3 ± 1.36 µM
NCI-H929; Homo sapiens, NCI-H929, 96 h
  IC50: 11.9 ± 1.14 µM
Ocl-Ly3
  IC50: 15.3 ± 1.46 µM
[2]; NCI-H929, MV-4-11 and Ocl-Ly3 cells
  fold reduction in potency compared with MGD-A5: more than 3 fold

## O=C1CCC(NC(=O)c2cccc(C(=O)N3CCOCC3)c2)C(=O)N1 (stereo not drawn) [MGD-A14, N-(2,6-dioxopiperidin-3-yl)-3-(morpholine-4-carbonyl)benzamide]
MV-4-11 [1]; Homo sapiens, MV4-11, 96 h
  IC50: 5.1 ± 0.49 µM
NCI-H929; Homo sapiens, NCI-H929, 96 h
  IC50: 7.43 ± 0.71 µM
Ocl-Ly3
  IC50: 10.6 ± 1.01 µM
[2]
  antiproliferative activity (in words): mild activity

## Nc1cccc2c1C(=O)N(C1CCC(=O)NC1=O)C2=O (stereo not drawn) [Pomalidomide, reference compound]
KG-1
  IC50: 17.2 µM
MOLM-13
  IC50: 12.4 µM
MUTZ-1
  IC50: 17.3 µM
MV-4-11 [1]; Homo sapiens, MV4-11
  IC50: 16.1 ± 1.54 µM
NCI-H929; Homo sapiens, NCI-H929, 96 h
  IC50: 2.18 ± 0.21 µM
OPM-2
  IC50: 0.204 µM
Ocl-Ly3
  IC50: 18.3 ± 1.74 µM
RPMI-8226
  IC50: 5.21 µM
SU-DHL-4
  IC50: 22.4 µM
Skm-1
  IC50: 20.1 µM
TMD8
  IC50: 15.3 µM
U2932
  IC50: 13.7 µM
U937
  IC50: 13.8 µM
WSU-DLCL-2
  IC50: 18.1 µM
IKZF1-HiBiT
  Dmax: 76.2%
IKZF3-HiBiT
  Dmax: 69.4%
MV-4-11 [3]
  apoptosis rate: 15.5%
[4]
  apoptosis (in words): induced significant apoptosis

## N-(2,6-dioxopiperidin-3-yl)-3-(thiomorpholinomethyl)cyclohexa-1,3-diene-1-carboxamide [MGD-A9]
MV-4-11 [1]
  IC50: 1.9 ± 0.18 µM
NCI-H929; 96 h
  IC50: 2.11 ± 0.2 µM
Ocl-Ly3
  IC50: 5.44 ± 0.52 µM
